# Experimental data taken from US11629139B2 (priority 2017, dated 2023).
# Test system: vesicular stomatitis virus particles (VSV) pseudotyped with EboV Zaire GP
# Test: microbe, parasite or virus in culture
# Format: cell-based
# Settings: not given
row,SMILES,IC50
1,"Nc1ccc(Cl)cc1CN1CCN(C(=O)CNC(=O)C2CC23CCCC3)CC1 (stereo not shown) [Compound 1410, N-(2-(4-(2-Amino-5-chlorobenzyl)piperazin-1-yl)-2-oxoethyl)spiro[2.4]heptane-1-carboxamide]",220 to 490 nM
2,"Nc1ccc(Cl)cc1CN1CCN(C(=O)CNC(=O)C2CC23CCC3)CC1 (stereo not shown) [Compound 1409, N-(2-(4-(2-Amino-5-chlorobenzyl)piperazin-1-yl)-2-oxoethyl)spiro[2.3]hexane-1-carboxamide]",2900 nM

# Same assay, conditions: Vesicular stomatitis virus
row,SMILES,IC50
1,Nc1ccc(CN2CCN(C(=O)CNC(=O)CC34CC5CC(CC(C5)C3)C4)CC2)cc1Cl [Compound 1250],800 nM
2,"COC(=O)c1ccc(COc2ccccc2CN2CCN(C(=O)CNC(=O)C3C4CC(F)(F)CC43)CC2)cc1 (stereo not shown) [Compound 1344, Methyl 4-((2-((4-((3,3-difluorobicyclo[3.1.0]hexane-6-carbonyl)glycyl)piperazin-1-yl)methyl)phenoxy)methyl)benzoate]",170 nM
3,N#Cc1ccc(COc2ccccc2CN2CCN(C(=O)CNC(=O)CC34CC5CC(CC(C5)C3)C4)CC2)cc1 [Compound 1259],700 nM
4,"COC(=O)c1ccc(COc2ccccc2CN2CCN(C(=O)CNC(=O)CC(C)(C)C(F)(F)F)CC2)cc1 [Compound 1278, Methyl 4-((2-((4-((4,4,4-trifluoro-3,3-dimethylbutanoyl)glycyl)piperazin-1-yl)methyl)phenoxy)methyl)benzoate]",> 2000 nM
5,"O=C(CC1CCC(F)(F)CC1)NCC(=O)N1CCN(Cc2cc(Cl)cc(F)c2O)CC1 [Compound 1402, N-(2-(4-(5-Chloro-3-fluoro-2-hydroxybenzyl)piperazin-1-yl)-2-oxoethyl)-2-(4,4-difluorocyclohexyl)acetamide]",2900 nM
6,O=C(CC12CC3CC(C1)CC(c1ccccc1)(C3)C2)NCC(=O)N1CCN(Cc2ccccc2OCc2ccc(Br)cc2)CC1 [Compound 1141],700 nM
7,"COC(=O)c1ccc(COc2ccccc2CN2CCN(C(=O)CNC(=O)CC3(C)CCCCC3)CC2)cc1 [Compound 1311, Methyl 4-((2-((4-((2-(1-methylcyclohexyl)acetyl)glycyl)piperazin-1-yl)methyl)phenoxy)methyl)benzoate]",80 nM
8,"CC(=O)N1CCC(COc2ccc(Cl)cc2CN2CCN(C(=O)CNC(=O)CC34CC5CC(CC(C5)C3)C4)CC2)CC1 [Compound 1301, N-(2-(4-(2-((1-acetylpiperidin-4-yl)methoxy)-5-chlorobenzyl)piperazin-1-yl)-2-oxoethyl)-2-((3r,5r,7r)-adamantan-1-yl)acetamide]",400 nM
9,"COC(=O)c1ccc(COc2ccccc2CN2CCN(C(=O)CNC(=O)C3CC3(C)C)CC2)cc1 (stereo not shown) [Compound 1317, Methyl 4-((2-((4-((2,2-dimethylcyclopropane-1-carbonyl)glycyl)piperazin-1-yl)methyl)phenoxy)methyl)benzoate]",400 nM
10,"O=C(CC12CC3CC(CC(C3)C1)C2)NCC(=O)N1CCN(Cc2cc(Cl)cc(C(F)(F)F)c2)CC1 [Compound 1326, 2-((1R,3R,5S)-Adamantan-1-yl)-N-(2-(4-(3-chloro-5-(trifluoromethyl)benzyl)piperazin-1-yl)-2-oxoethyl)acetamide]",920 nM
11,O=C(CC12CC3CC(CC(Br)(C3)C1)C2)NCC(=O)N1CCN(Cc2ccccc2OCc2ccc(Br)cc2)CC1 [Compound 1245],600 nM
12,COC(=O)c1ccc(COc2ccc(C#N)cc2CN2CCN(C(=O)CNC(=O)CC34CC5CC(CC(C5)C3)C4)CC2)cc1 [Compound 1117],50 nM
13,"Nc1cc(Br)cc(CN2CCN(C(=O)CNC(=O)CC34CC5CC(CC(C5)C3)C4)CC2)c1 [Compound 1341, 2-((1R,3R,5S)-Adamantan-1-yl)-N-(2-(4-(3-amino-5-bromobenzyl)piperazin-1-yl)-2-oxoethyl)acetamide]",320 nM
14,"O=C(CC12CC3CC(CC(C3)C1)C2)NCC(=O)N1CCN(Cc2cc(F)c(F)cc2O)CC1 [Compound 1324, 2-((1R,3R,5S)-Adamantan-1-yl)-N-(2-(4-(4,5-difluoro-2-hydroxybenzyl)piperazin-1-yl)-2-oxoethyl)acetamide]",1500 nM
